Laboratory results taken from ChEMBL document CHEMBL4342415, “Inhibition of the Cytolytic Protein Perforin Prevents Rejection of Transplanted Bone Marrow Stem Cells in Vivo” (J Med Chem, 2020).
Each block holds one molecule with its values, some of them ahead of it. Active and inactive are the calls of the source. The rule behind the calls is not given here.

Key:
[1] = target: T1, Perforin-1 (Homo sapiens) (UniProt P14222); test: Inhibition of perforin in human KHYG-1 cells pre-treated with compound for 20 mins assessed as reduction in KHYG-1 cells-mediated cell lysis of human K562 cells at 20 uM measured after 4 hrs by 51Cr release based gamma counting method
T1 sequence (whole entry): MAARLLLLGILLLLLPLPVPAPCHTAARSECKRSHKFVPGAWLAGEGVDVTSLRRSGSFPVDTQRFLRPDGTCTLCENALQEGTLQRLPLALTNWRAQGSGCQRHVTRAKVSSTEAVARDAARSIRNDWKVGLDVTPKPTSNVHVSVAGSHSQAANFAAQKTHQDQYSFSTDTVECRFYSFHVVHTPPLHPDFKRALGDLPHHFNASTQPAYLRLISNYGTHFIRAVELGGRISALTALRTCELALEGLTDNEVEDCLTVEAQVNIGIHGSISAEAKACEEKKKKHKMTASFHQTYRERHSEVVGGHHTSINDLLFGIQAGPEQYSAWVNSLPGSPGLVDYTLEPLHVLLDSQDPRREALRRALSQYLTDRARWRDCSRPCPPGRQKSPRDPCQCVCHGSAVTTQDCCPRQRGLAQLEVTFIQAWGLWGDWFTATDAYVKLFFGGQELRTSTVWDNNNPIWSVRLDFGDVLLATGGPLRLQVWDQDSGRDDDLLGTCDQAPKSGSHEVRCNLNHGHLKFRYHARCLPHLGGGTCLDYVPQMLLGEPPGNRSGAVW

[2] = Half life in CD1 mouse at 90 mg/kg, ip measured during 15 mins to 24 hrs by LC-MS/MS analysis; type: ADME, organism-based; details: in vivo
[3] = Unbound fraction in human KHYG-1 cell media; type: ADME
[4] = Protein binding in CD1 mouse plasma at 10 uM incubated for 6 hrs by LC-MS/MS analysis and equilibrium dialysis; type: ADME, cell-free; details: read-out: PPB (converted)
[5] = Toxicity in human KHYG-1 cells assessed as cell viability at 10 uM after 24 h by trypan blue exclusion assay relative to control; type: cell-based; details: read-out: Activity
[6] = AUC (0 to infinity) in CD1 mouse at 90 mg/kg, ip measured during 15 mins to 24 hrs by LC-MS/MS analysis; type: ADME, organism-based; design: dose 90 mg/kg, route intraperitoneal, time infinity; details: in vivo
[7] = Cmax in CD1 mouse at 90 mg/kg, ip measured during 15 mins to 24 hrs by LC-MS/MS analysis; type: ADME, organism-based; design: dose 90 mg/kg, route intraperitoneal; details: in vivo
Mus musculus [8] = test: (§1) Suppression of bone marrow transplant rejection in B6 mouse model of bone marrow transplantation receiving both allogeneic MHC- mismatched BALB/c stem cells and syngeneic MHC-matched B6 stem cells assessed as reduction in perforin-dependent NK cell-mediated graft rejection in peripheral blood at 125 mg/kg, ip dosed immediately prior to cell transfer and 18 hrs after cell transfer and measured after 24 hrs relative to control; type: functional; design: scale not given: the % may be the effect or the level left
[9] = Time at which unbound plasma concentration stays above IC50 in C57BL/6 mouse at 90 mg/kg, ip; type: ADME, organism-based; details: in vivo
Mus musculus [10] = test: as §1, with “spleen” for “peripheral blood”; type: functional; design: scale not given: the % may be the effect or the level left
[11] = Toxicity in B6 mouse model of bone marrow transplantation receiving both allogeneic MHC- mismatched BALB/c stem cells and syngeneic MHC-matched B6 stem cells assessed as drug tolerability at 125 mg/kg, ip dosed immediately prior to cell transfer and 18 hrs after cell transfer and measured after 24 hrs relative to control; type: organism-based; details: in vivo
[12] = Solubility in water by HPLC analysis; type: physicochemical
[13] = Stability in Sprague-Dawley rat liver microsomes assessed as parent compound remaining level at 3 uM pre-incubated for 30 mins before NADPH addition by LC-MS/MS analysis; type: ADME, Microsome; details: read-out: Stability
[14] = Stability in human liver microsomes assessed as parent compound remaining level at 3 uM pre-incubated for 30 mins before NADPH addition by LC-MS/MS analysis; type: ADME, Microsome; details: read-out: Stability
[15] = Stability in CD1 mouse liver microsomes assessed as parent compound remaining level at 3 uM pre-incubated for 30 mins before NADPH addition by LC-MS/MS analysis; type: ADME, Microsome; details: read-out: Stability
[16] = Stability Milli-Q water at 10 uM incubated for 24 hrs by LC-MS/MS analysis; type: physicochemical; details: read-out: Stability
[17] = AUC (0 to infinity) in CD1 mouse at 75 mg/kg, ip measured during 15 mins to 24 hrs by LC-MS/MS analysis; type: ADME, organism-based; design: dose 75 mg/kg, route intraperitoneal, time infinity; details: in vivo
[18] = Half life in CD1 mouse at 75 mg/kg, ip measured during 15 mins to 24 hrs by LC-MS/MS analysis; type: ADME, organism-based; details: in vivo
[19] = Cmax in CD1 mouse at 75 mg/kg, ip measured during 15 mins to 24 hrs by LC-MS/MS analysis; type: ADME, organism-based; design: dose 75 mg/kg, route intraperitoneal; details: in vivo
[20] = Half life in CD1 mouse at 150 mg/kg, ip measured during 15 mins to 24 hrs by LC-MS/MS analysis; type: ADME, organism-based; details: in vivo
[21] = Cmax in CD1 mouse at 150 mg/kg, ip measured during 15 mins to 24 hrs by LC-MS/MS analysis; type: ADME, organism-based; design: dose 150 mg/kg, route intraperitoneal; details: in vivo
[22] = AUC (0 to infinity) in CD1 mouse at 150 mg/kg, ip measured during 15 mins to 24 hrs by LC-MS/MS analysis; type: ADME, organism-based; design: dose 150 mg/kg, time infinity, route intraperitoneal; details: in vivo

Compound: O=C1NCc2cc(-c3ccc(-c4cncc(NS(=O)(=O)c5ccc(F)cc5F)c4)s3)cnc21
viability at 24 h, 10 µM [5]: 49%

Compound: O=C1NCc2cc(-c3ccc(-c4cncc([N-]S(=O)(=O)c5ccc(F)cc5F)c4)s3)cnc21.[Na+]
solubility [12]: 1130 µg/mL

Compound: COc1ncc(-c2ccc(-c3cnc4c(c3)CN(C)C4=O)s2)cc1[N-]S(=O)(=O)c1ccccc1[N+](=O)[O-].[Na+]
remaining at 3 µM [13]: 80%
remaining at 3 µM [14]: 94%
remaining at 3 µM [15]: 95%
solubility [12]: 4810 µg/mL
remaining at 24 h, 10 µM [16]: 100%

Compound: O=C1NCc2ncc(-c3ccc(-c4cncc([N-]S(=O)(=O)c5ccc(F)cc5F)c4)s3)cc21.[Na+]
remaining at 3 µM [13]: 100%
remaining at 3 µM [14]: 95%
remaining at 3 µM [15]: 83%
solubility [12]: 3770 µg/mL
remaining at 24 h, 10 µM [16]: 93%

Compound: COc1ncc(-c2ccc(-c3cnc4c(c3)CN(C)C4=O)s2)cc1NS(=O)(=O)c1ccccc1[N+](=O)[O-]
AUC(0-inf) [17]: 2240 µM·h
fraction unbound at 6 h, 10 µM [4]: 0.0009
viability at 24 h, 10 µM [5]: 95.8%
half-life [18]: 1.6 h
Cmax [19]: 637 µM

Compound: CN1Cc2cc(-c3ccc(-c4cncc(NS(=O)(=O)c5cccc(C(F)(F)F)c5)c4)s3)cnc2C1=O [listing 1 of 2 here]
viability at 24 h, 10 µM [5]: 97.8%

Compound: CN1Cc2cc(-c3ccc(-c4cncc([N-]S(=O)(=O)c5ccccc5C(F)(F)F)c4)s3)cnc2C1=O.[Na+]
remaining at 3 µM [13]: 36%
remaining at 3 µM [14]: 56%
remaining at 3 µM [15]: 86%
solubility [12]: 4280 µg/mL

Compound: COc1ncc(-c2ccc(-c3cnc4c(c3)CN(C)C4=O)s2)cc1NS(=O)(=O)c1ccccc1C(F)(F)F
viability at 24 h, 10 µM [5]: 95.8%

Compound: CN1Cc2cc(-c3ccc(-c4cncc(NS(=O)(=O)c5ccccc5C(F)(F)F)c4)s3)cnc2C1=O
viability at 24 h, 10 µM [5]: 100%

Compound: COc1ncc(-c2ccc(-c3cnc4c(c3)CN(C)C4=O)s2)cc1[N-]S(=O)(=O)c1ccccc1C(F)(F)F.[Na+]
remaining at 3 µM [13]: 50%
remaining at 3 µM [14]: 63%
remaining at 3 µM [15]: 91%
solubility [12]: 7340 µg/mL

Compound: CN1Cc2cc(-c3ccc(-c4cncc([N-]S(=O)(=O)c5cccc(C(F)(F)F)c5)c4)s3)cnc2C1=O.[Na+]
remaining at 3 µM [13]: 84%
remaining at 3 µM [14]: 46%
remaining at 3 µM [15]: 88%
solubility [12]: 20300 µg/mL

Compound: COc1ncc(-c2ccc(-c3cnc4c(c3)CN(C)C4=O)s2)cc1[N-]S(=O)(=O)c1ccc(F)cc1F.[Na+]
remaining at 3 µM [13]: 100%
remaining at 3 µM [14]: 75%
remaining at 3 µM [15]: 100%
solubility [12]: 18300 µg/mL
remaining at 24 h, 10 µM [16]: 100%

Second part, led by results:

inhibition [1]: inactive
Compound: O=C1c2ccc(-c3ccc(-c4cncc(NS(=O)(=O)c5ccc(F)cc5F)c4)s3)cc2CN1CCN1CCCCC1

half-life [2]: 6.8 h
fraction unbound [3]: 0.456
fraction unbound at 6 h, 10 µM [4]: 0.0006
AUC(0-inf) [6]: 10400 µM·h
Cmax [7]: 860 µM
Compound: CN1Cc2cc(-c3ccc(-c4cncc(NS(=O)(=O)c5ccc(F)cc5F)c4)s3)cnc2C1=O
viability at 24 h, 10 µM [5]: 99.6%

half-life [2]: 18.9 h
fraction unbound [3]: 0.255
Time [9]: 5 to 6 h
fraction unbound at 6 h, 10 µM [4]: 0.0009
AUC(0-inf) [6]: 42500 µM·h
Cmax [7]: 1310 µM
Compound: COc1ncc(-c2ccc(-c3cnc4c(c3)CN(C)C4=O)s2)cc1NS(=O)(=O)c1ccc(F)cc1F
Activity (Mus musculus [8]): 66%
Activity (Mus musculus [10]): 66%
Activity [11]: Non-Toxic
viability at 24 h, 10 µM [5]: 90.6%

inhibition [1]: 40%
Compound: O=C1NCc2ncc(-c3ccc(-c4cncc(NS(=O)(=O)c5ccc(F)cc5F)c4)s3)cc21 [listing 1 of 2 here]

inhibition [1]: inactive
Compound: O=C1c2ccc(-c3ccc(-c4cncc(NS(=O)(=O)c5ccc(F)cc5F)c4)s3)cc2CN1CCN1CCOCC1

inhibition [1]: inactive
Compound: O=C1c2ccc(-c3ccc(-c4cncc(NS(=O)(=O)c5ccc(F)cc5F)c4)s3)cc2CN1CCCO

half-life [20]: 5.5 h
fraction unbound at 6 h, 10 µM [4]: 0.0011
Cmax [21]: 1320 µM
AUC(0-inf) [22]: 7670 µM·h
Compound: O=C1NCc2ncc(-c3ccc(-c4cncc(NS(=O)(=O)c5ccc(F)cc5F)c4)s3)cc21 [listing 2 of 2 here]
viability at 24 h, 10 µM [5]: 100%

inhibition [1]: 40%
Compound: CN1Cc2cc(-c3ccc(-c4cncc(NS(=O)(=O)c5cccc(C(F)(F)F)c5)c4)s3)cnc2C1=O [listing 2 of 2 here]

inhibition [1]: inactive
Compound: CN(C)CCN1Cc2cc(-c3ccc(-c4cncc(NS(=O)(=O)c5ccc(F)cc5F)c4)s3)ccc2C1=O

inhibition [1]: inactive
Compound: O=C1c2ccc(-c3ccc(-c4cncc(NS(=O)(=O)c5ccc(F)cc5F)c4)s3)cc2CN1CCN1CCCC1

inhibition [1]: inactive
Compound: CN1CCN(CCN2Cc3cc(-c4ccc(-c5cncc(NS(=O)(=O)c6ccc(F)cc6F)c5)s4)ccc3C2=O)CC1

inhibition [1]: inactive
Compound: O=C1c2ccc(-c3ccc(-c4cncc(NS(=O)(=O)c5ccc(F)cc5F)c4)s3)cc2CN1CC(O)CO (configuration not stated)

remaining at 3 µM [13]: 100%
remaining at 3 µM [14]: 80%
remaining at 3 µM [15]: 100%
solubility [12]: 20300 µg/mL
remaining at 24 h, 10 µM [16]: 100%
Compound: CN1Cc2cc(-c3ccc(-c4cncc([N-]S(=O)(=O)c5ccc(F)cc5F)c4)s3)cnc2C1=O.[Na+]
